Data reported in patent US20070004767A1, “Methods for treating neurofibromatosis 1” (priority 2005, published 2007).

Experiments:
[1] = test system: ribosomal S6 protein phosphorylation in Nf1−/− astrocytes; assay: S6 phosphorylation (phospho-S6 Ser240/244 Western blot) in Nf1−/− astrocytes; type: cell-based, mouse
Method: (§1) Western blot analysis was performed as described previously in, for example, Dasgupta B et al., The Neurofibromatosis 1 Gene Product Neurofibromin Regulates Pituitary Adenylate Cyclase-Activating Polypeptide-Mediated Signaling in Astrocytes, J. NEUROSCI. 23:8949-8954 (2003). The following antibodies were used: anti-NF1GRP, nucleolin, and cyclin D1 (Santa Cruz Biotechnology, Santa Cruz, Calif.), phospho-S6 (Serine-240/244; Cell Signaling Technology, Beverley, Mass.), α-tubulin and fibrillarin (Sigma, St. Louis, Mo.), anti-T7 (Novagen, Madison, Wis.), anti-KT3 (Babco, Richmond, Calif.), NPM (Zymed, San Francisco, Calif.), and L7 (Novus Biologicals, Littleton, Colo.).
(§2) One of the downstream targets of activated RAS is P13-Kinase. See Rodriguez-Viciana P, et al., Phosphatidylinositol-3-OH Kinase as a Direct Target of Ras, NATURE 370:527-532 (1994). In this regard, loss of neurofibromin expression is associated with activation of the PI3K-AKT signaling pathway in human NF1-associated pilocytic astrocytoma and in Nf1−/− mouse myeloid cells. See Lau N, et al., Loss of Neurofibromin is Associated with Activation of Ras/MAPK and PI3K/AKT Signalling in a Neurofibromatosis 1 Astrocytoma, J NEUROPATHOL. EXP. NEUROL. 59:759-767 (2000); and Donovan S, et al., Hyperactivation of Protein Kinase B and Erk Have Discrete Effects on Survival, Proliferation, and Cytokine Expression in Nf1-Deficient Myeloid Cells, CANCER CELL 2:507-514 (2002). Several studies have shown that activation of the PI3K-AKT leads to activation of the mammalian target of rapamycin (mTOR), which leads to phosphorylation of S6 kinase and activation of ribosomal S6. See Chung J, et al., PDGF- and Insulin-Dependent pp70S6k Activation Mediated by Phosphatidylinositol-3-OH Kinase, NATURE 370:71-75 (1994); and Gingras A C, et al., Regulation of Translation Initiation by FRAP/mTOR, GENES DEV. […] To determine whether S6 hyperactivation in Nf1−/− astrocytes is downstream of PI3K and mTOR, S6 phosphorylation in both Nf1+/+ and Nf1−/− astrocytes in presence of a PI3K inhibitor (LY294002) and an mTOR inhibitor (rapamycin) was measured. […]

[2] = test system: ribosomal S6 protein phosphorylation in wild-type (Nf1+/+) astrocytes; assay: S6 phosphorylation (phospho-S6 Ser240/244 Western blot) in wild-type astrocytes; type: cell-based, mouse; details: for S6 phosphorylation: wild-type astrocytes
Method: as §1, §2

[3] = test system: astrocytes; details: mouse, 1 μM
Method: (§3) To determine whether the growth advantage of Nf1-deficient astrocytes reflected increased mTOR signaling, Nf1−/− astrocyte proliferation after rapamycin treatment was measured.

[4] = target: 12 kDa FK506 binding protein (FKBP12) (Homo sapiens, UniProt P62942); details: cited from earlier work
12 kDa FK506 binding protein (FKBP12), sequence (P62942 whole entry, species assumed, the tested form may be a part): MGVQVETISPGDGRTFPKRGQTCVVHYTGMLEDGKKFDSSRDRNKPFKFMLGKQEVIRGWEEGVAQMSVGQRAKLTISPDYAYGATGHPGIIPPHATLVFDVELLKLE

[5] = target: FKBP-rapamycin binding domain (FRB) of mammalian target of rapamycin (mTOR) (Homo sapiens, UniProt P42345+P62942); details: cited from earlier work
FKBP-rapamycin binding domain (FRB) of mammalian target of rapamycin (mTOR), sequence (P42345 2015-2114, species assumed): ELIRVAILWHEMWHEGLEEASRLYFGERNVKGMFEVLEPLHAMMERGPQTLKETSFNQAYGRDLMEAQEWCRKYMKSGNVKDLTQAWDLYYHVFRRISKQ
FKBP-rapamycin binding domain (FRB) of mammalian target of rapamycin (mTOR), sequence (P62942 2-108, species assumed): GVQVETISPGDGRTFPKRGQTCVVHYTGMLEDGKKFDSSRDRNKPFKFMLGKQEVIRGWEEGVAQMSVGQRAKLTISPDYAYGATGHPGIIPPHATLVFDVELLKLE

[6] = test system: Nf1−/− astrocytes; assay: Astrocyte proliferation by 3[H]-thymidine incorporation, Nf1−/− astrocytes
Method: (§4) Murine neocortical astroglial cultures, containing >95% GFAP positive cells (astrocytes), were generated from postnatal day 2 Nf1^flox/flox and (LSL)-K-RAS^G12D; GFAPCre transgenic pups as previously described. […] Astrocyte proliferation assays were performed by ^3[H]-thymidine incorporation.
as §3

[7] = test system: wild-type astrocytes; assay: Astrocyte proliferation by 3[H]-thymidine incorporation, wild-type astrocytes
Method: as §4, §3

[8] = control astrocytes, FIG. 6 legend

For `CO[C@H]1C[C@@H]2CC[C@@H](C)[C@@](O)(O2)C(=O)C(=O)N2CCCC[C@H]2C(=O)O[C@H]([C@H](C)C[C@@H]2CC[C@@H](O)[C@H](OC)C2)CC(=O)[C@H](C)/C=C(\C)[C@@H](O)[C@@H](OC)C(=O)[C@H](C)C[C@H](C)/C=C/C=C/C=C/1C` [rapamycin, Rapamycin], the S6 phosphorylation ([1]; 1 μM, FIG. 6 inset) was “significantly inhibited”, the S6 phosphorylation ([1]; 5 μM, FIG. 2C) was “completely inhibited” and the “inhibition of ribosomal S6 protein phosphorylation, dose dependence” value ([1]; FIG. 6 legend) was “dose-dependent inhibition”. For the same molecule, the “effect on ribosomal S6 protein phosphorylation in control astrocytes” value [2, 8] was “little or no effect”, the S6 phosphorylation ([2]; 1 μM, FIG. 6 inset) was “no effect” and the S6 phosphorylation ([2]; 5 μM, FIG. 2C) was “completely inhibited”. The “cell survival (Trypan blue exclusion)” value [3] was “greater than 98%”, the “binding affinity to FKBP12” value [4] was “high affinity” and the “binding affinity to FRB domain (E2015 to Q2114) of mTOR” value [5] was “high affinity”. The reduction of proliferation ([6]; 1 μM) was 55±9.5%, the “inhibition of cell proliferation (growth), dose dependence” value ([6]; FIG. 6 legend) was “dose-dependent inhibition” and the “effect on cell proliferation (growth) in control astrocytes” value [7, 8] was “little or no effect”. For the same molecule, the “reduction of basal proliferation” value ([7]; wild-type astrocytes, 1 μM) was 16±4%.
